Where a name gives a salt, the structure may show the parent alone.
Tests used:
[1] = tested on: patients having depressive illnesses; assay: clinical study, Hamilton rating scale for depressive illness; type: in vivo, human; conditions: 75 mg daily
Experimental: The Hamilton rating scale for primary depressive illness (Hamilton M. Development of a rating scale for primary depressive illness//Br J Soc Clin Psychol. 1967 December;6(4):278-96) is one of the most widely used scales for assessing depression in the clinical practice.
The material for clinical studies has comprised two homogenous groups of patients having depressive illnesses (40 persons) aged 20-42, out of which 20 patients have taken amitriptyline in the daily dose of 75 mg (25 mg three times a day), and 20 patients have taken phenotropyl in the daily dose of 100 mg as a single dose in the morning time. For a comparative study of the medications antidepressant activity the patients have been enlisted for the study according to the following criteria: the informed consent is available, a light or moderate depressive episode (F32.0 ? F32.1 according to MCB-10) is present, the total score under the Hamilton rating scale is not lower than 18, no contraindications to taking amitriptyline and phenotropyl. The patients have been relatively uniformly assigned to the said groups according to meaningful factors, such as sex and age, time for which the condition exists and syndrome characteristics. The condition existence time varied from 1 to 2 years. The therapy efficiency has been assessed on the basis of a degree of reduction of the total score under the Hamilton scale, namely: full effect—reduction by more than 50%; partial reduction—from 25 to 50%; no effect—reduction by less than 25%. The condition of the patients has been assessed during the background studies and at each 7th day of the therapy for the whole 6 weeks of the therapy. In total, seven examinations have been carried out. The comparative data on the general efficiency pf the medications, as given in Table 5, evidence a rather quick reduction of the depressive illness psychopathological symptoms in the process of administering phenotropyl and amitriptyline. However, the antidepressant effect of phenotropyl has been more pronounced on the 7th and 14th days of the therapy. The full reduction has been attained in 25% and 40% of the patients, respectively. […] From the 28th day of the therapy the number of the patients experiencing the maximum effect has not been changed either on the 35th or the 42nd days of the therapy. Out of 20% of the patients experiencing a partial reduction of the depressive symptoms, 15% have been patients with the reduction from 25% to 50%, and 5%—patients with the reduction by less than 25%.

[2] = tested on: white outbred male rats; assay: Porsolt method of behavioral despair (helplessness); type: in vivo
Source text: The Porsolt method of behavioral despair (helplessness) (Porsolt R. D., Anton G., Blavet N. et al. Behavioral despair in rats: a new model sensitive to antidepressant treatment//Europ. J. Pharmacol. 1978—v. 47.—p. 379-391) is the basic model for assessing antidepressants (Andreeva N. I., ? H. ? . the Methodical Guidelines for Studying Antidepressant Activity of Pharmaceuticals,//Guidebook for Experimental (Preclinical) Studies of New Pharmaceuticals of the RF Ministry of Public Health.—ZAO IIA “Remedium”.—2000.—p. 121-125). The studies have been conducted on white outbred male rats having the weight of 230-250 grams. The animals have been put into a water reservoir having 40 cm in diameter and the depth of 60 cm, for the rats cannot either run out of the reservoir or find a support in it. The water temperature has been maintained at the level of 25° C., the experiments have been conducted within the period from 12 A.M. to 4 P.M. After coming into water the animals begin displaying energetic motion activity aimed at finding a way out of the aversive (troublesome) situation, but then they stop their attempts and take a typical position in the water, while being fully immovable or making insignificant motions necessary for keeping their heads over the water surface. The depressive condition intensity rate in this test is the duration of immobility. The immobility condition has been assessed visually, determining its duration within 10 minutes of the observations. Substances having antidepressant activity alleviate this condition by reducing the immobility time.
The studies have been conducted using animals divided into groups. The animals from the experimental groups have received single doses of phenotropyl in the amounts of 25, 50 and 100 mg/kg or the standard amitriptyline medication in the amount of 10 mg/kg (ampoule solution made by Spofa, the Czech Republic) in the volume corresponding to the dose. The animals from the control group have received distilled water in the same dosage. All the substances have been given intragastrically 40 minutes before the an experiment.

[3] = tested on: white outbred male rats; assay: involuntary swimming in a reservoir with freely moving wheels according to Nomura; type: in vivo
Experimental: The method of involuntary swimming in a reservoir with freely moving wheels (Nomura S., Shimizu J., Kinjo M. et al. A new behavioral test for antidepressant drugs//Eur. J. Pharmacol.—1982.—v. 83.—N 34.—p. 171-175) is widely used for assessing the action of antidepressant agents. The installation is a reservoir having dimensions of 64×30×42 cm and divided into four equal sections where wheels are located. The reservoir is filled with water at the temperature of 25° C., coming to the medium line of the wheels. The studies have been conducted with white outbred male rats having the weight from 230 to 250 grams. The rats have been put into each section in the position where their heads are opposite to the wheels, and then the wheel speed has been recorded for 10 minutes with the use of electromechanical counters. The number of wheel revolutions made by the rat for 10 minutes is recorded.
This study has been conducted with animals from different groups. The rats from the experimental groups have received single doses of phenotropyl in the amounts of 25, 50 and 100 mg/kg or the standard amitriptyline medication in the amount of 10 mg/kg (ampoule solution made by Spofa, the Czech Republic) in the volume corresponding to the dosage. The animals from the control group have received distilled water in the same dosage. All the substances have been given intragastrically 40 minutes before the an experiment.

[4] = tested on: white outbred male mice; assay: haloperidol catalepsy method; type: in vivo; conditions: haloperidol 0.5 mg/kg intraperitoneally alone
Experimental: As one of the indicators for antidepressant antagonism in relation to depriming effects of neuroleptics, neuroleptic-induced catalepsy is used. The maintenance of catalepsy in animals is assessed by their ability to maintain set or unusual poses for a definite time (Morpurgo C. Effects of antiparkinson drugs on phenothiazine induced catatonia reaction//Arch. Int Pharmacodyn., 1962, vol. 137 No 1-2, p. 84-94). Reduction or prevention of catalepsy is one of the factors showing antidepressant activity in studied substances.
The studies have been conducted with white outbred male mice having the weight from 18 to 24 grams. Haloperidol is introduced intraperitoneally in a single dose of 0.5 mg/kg. Phenotropyl has been introduced intraperitoneally in doses of 50, 100 and 200 mg/kg in 15 minutes after the introduction of haloperidol. The catalepsy intensity has been assessed by time (in seconds) of keeping the animals in an uncomfortable pose where their front legs have been put onto a bar having the height of 4 cm, in 60, 120 and 180 minutes after introducing the said medications. It is shown in Table 4 that phenotropyl clearly antagonizes haloperidol-induced catalepsy.

[5] = tested on: white outbred male rats; assay: reserpine depression method according to Bernardi; type: in vivo; conditions: reserpine 2.5 mg/kg intraperitoneally alone
Source text: The method of reserpine depression according to Bernardi (Bernardi D., Paglialunga S., Jori A. Peripheral and central components in the hyperthermic effect of desipramine in rezerpinized rats//J. Pharm. Pharmacol., 1968, vol. 20, p. 204-209) is one of the basic models for assessing antidepressants in studies of new pharmaceuticals. The studies have been conducted with white outbred male rats having the weight from 200 to 240 grams. Reserpine has been introduced intraperitoneally, as a single dose of 2.5 mg/kg 2 hours before the introduction of phenotropyl (intraperitoneally, single doses of 25, 50, 100 and 200 mg/kg) and 3 hours before starting the study. The animals from the control group have received intraperitoneally distilled water only in the same volumes as the animals from the experimental groups. The antidepressant activity of phenotropyl has been assessed by its effect on sedation (suppression of the orientation and motion activity), intensity of ptosis and diarrhea, which have been caused by reserpine in the rats.
The orientation and motion activity of the animals has been studied for three minutes in a special activity meter (Varimex). The intensity of ptosis and diarrhea has been assessed on the standard 4-point scale (Mashkovsky M. D., Andreeva N. I., Polezhaeva A. I. Pharmacology of Antidepressants. Moscow, Medicine Publishers, 1983, p. 194-199).

For `CN(C)CCC=C1c2ccccc2CCc2ccccc21` [Amitriptyline, 5-(3-dimethylaminopropylidene)-10,11-dihydrodibenzocycloheptine hydrochloride, reference compound], the “patients (%) with reduction of total Hamilton score 25-49” value ([1]; 7th therapy day) was 20%, the “patients (%) with reduction of total Hamilton score <25” value ([1]; 7th therapy day) was 80% and the “patients (%) with reduction of total Hamilton score ≧50” value ([1]; 7th therapy day) was 0%. For the same compound, the “patients (n) with reduction of total Hamilton score 25-49” value ([1]; 7th therapy day) was 4, the “patients (n) with reduction of total Hamilton score <25” value ([1]; 7th therapy day) was 16 and the “patients (n) with reduction of total Hamilton score ≧50” value ([1]; 7th therapy day) was 0. The “patients (%) with reduction of total Hamilton score 25-49” value ([1]; 14th therapy day) was 30%, the “patients (%) with reduction of total Hamilton score <25” value ([1]; 14th therapy day) was 50% and the “patients (%) with reduction of total Hamilton score ≧50” value ([1]; 14th therapy day) was 20%. For the same compound, the “patients (n) with reduction of total Hamilton score 25-49” value ([1]; 14th therapy day) was 6, the “patients (n) with reduction of total Hamilton score <25” value ([1]; 14th therapy day) was 10 and the “patients (n) with reduction of total Hamilton score ≧50” value ([1]; 14th therapy day) was 4. The “patients (%) with reduction of total Hamilton score 25-49” value ([1]; 21st therapy day) was 30%, the “patients (%) with reduction of total Hamilton score <25” value ([1]; 21st therapy day) was 30% and the “patients (%) with reduction of total Hamilton score ≧50” value ([1]; 21st therapy day) was 40%. The “patients (n) with reduction of total Hamilton score 25-49” value ([1]; 21st therapy day) was 6, the “patients (n) with reduction of total Hamilton score <25” value ([1]; 21st therapy day) was 6 and the “patients (n) with reduction of total Hamilton score ≧50” value ([1]; 21st therapy day) was 8. The “patients (%) with reduction of total Hamilton score 25-49” value ([1]; 28th therapy day) was 10%, the “patients (%) with reduction of total Hamilton score <25” value ([1]; 28th therapy day) was 20% and the “patients (%) with reduction of total Hamilton score ≧50” value ([1]; 28th therapy day) was 70%. The “patients (n) with reduction of total Hamilton score 25-49” value ([1]; 28th therapy day) was 2, the “patients (n) with reduction of total Hamilton score <25” value ([1]; 28th therapy day) was 4 and the “patients (n) with reduction of total Hamilton score ≧50” value ([1]; 28th therapy day) was 14. The “patients (%) with reduction of total Hamilton score 25-49” value ([1]; 35th therapy day) was 5%, the “patients (%) with reduction of total Hamilton score <25” value ([1]; 35th therapy day) was 10% and the “patients (%) with reduction of total Hamilton score ≧50” value ([1]; 35th therapy day) was 85%. For the same compound, the “patients (n) with reduction of total Hamilton score 25-49” value ([1]; 35th therapy day) was 1, the “patients (n) with reduction of total Hamilton score <25” value ([1]; 35th therapy day) was 2 and the “patients (n) with reduction of total Hamilton score ≧50” value ([1]; 35th therapy day) was 17. The “patients (%) with reduction of total Hamilton score 25-49” value ([1]; 42nd therapy day) was 5%, the “patients (%) with reduction of total Hamilton score <25” value ([1]; 42nd therapy day) was 10% and the “patients (%) with reduction of total Hamilton score ≧50” value ([1]; 42nd therapy day) was 85%. For the same compound, the “patients (n) with reduction of total Hamilton score 25-49” value ([1]; 42nd therapy day) was 1, the “patients (n) with reduction of total Hamilton score <25” value ([1]; 42nd therapy day) was 2 and the “patients (n) with reduction of total Hamilton score ≧50” value ([1]; 42nd therapy day) was 17. The “effect on immobility time” value ([2]; 10 mg/kg intragastrically) was “reliably reduced the immobility time”, the Time of immobility ([2]; single dose 10 mg/kg intragastrically 40 minutes before, 10 minutes observation) was 166.1 ± 46.5 s and the “effect on number of wheel revolutions” value ([3]; 10 mg/kg intragastrically) was “reliably increasing the number of wheel revolutions”. For the same compound, the “Number of wheel revolutions for 10 minutes” value ([3]; single dose 10 mg/kg intragastrically 40 minutes before) was 115.1 ± 24.6.

With `O=C(CCCN1CCC(O)(c2ccc(Cl)cc2)CC1)c1ccc(F)cc1` [Haloperidol, reference compound] the “Catalepsy” value ([4]; 60 minutes) was 1.3 ± 0.8 s, the “Catalepsy” value ([4]; 120 minutes) was 27.5 ± 8.5 s and the “Catalepsy” value ([4]; 180 minutes) was 63.4 ± 2.8 s.

For `COC(=O)[C@H]1[C@H]2C[C@@H]3c4[nH]c5cc(OC)ccc5c4CCN3C[C@H]2C[C@@H](OC(=O)c2cc(OC)c(OC)c(OC)c2)[C@@H]1OC` [Reserpine, reference compound], the Diarrhea ([5]; 4-point scale) was 2.4 ± 0.1 points, the Ptosis ([5]; 3 hours before study, 4-point scale) was 3.6 ± 0.2 points and the “Number of pulses in activity meter” value ([5]; three minutes, Varimex) was 11.8 ± 2.2.

From patent US20060287383A1, “Substance exhibiting antidepressant property” (priority 2003, published 2006)
